Target: BRD4S-TagBFP reporter (Homo sapiens, UniProt O60885)
Assay: FACS-based CRISPR/Cas9 BRD4 protein stability screen

Cc1sc2c(c1C)C(c1ccc(Cl)cc1)=NC(CC(=O)NCCOCCOCCOCCOc1c(Br)cc(C=C3C(=O)Nc4ccc(Br)cc43)cc1Br)c1nnc(C)n1-2 (stereo not drawn) [Compound 10]
Low_lfc (Gene FBXL18, Mageck_Gene level): 0.15
Low_logP (Gene FBXL18, Mageck_Gene level): 0.58
High_lfc (Gene FBXL19, Mageck_Gene level): -0.07
High_logP (Gene FBXL19, Mageck_Gene level): 0.17
Low_lfc (Gene FBXL19, Mageck_Gene level): 0.26
Low_logP (Gene FBXL19, Mageck_Gene level): 0.97
High_lfc (Gene FBXL20, Mageck_Gene level): 0.09
High_logP (Gene FBXL20, Mageck_Gene level): 0.36
Low_lfc (Gene FBXL20, Mageck_Gene level): -0.03
Low_logP (Gene FBXL20, Mageck_Gene level): 0.19
High_lfc (Gene FBXL21, Mageck_Gene level): 0.06
High_logP (Gene FBXL21, Mageck_Gene level): 0.36
Low_lfc (Gene FBXL21, Mageck_Gene level): -0.13
Low_logP (Gene FBXL21, Mageck_Gene level): 0.07
High_lfc (Gene FBXL22, Mageck_Gene level): 0.4
Low_lfc (Gene FBXL22, Mageck_Gene level): 0.39
Low_logP (Gene FBXL22, Mageck_Gene level): 1.13
High_lfc (Gene FBXO2, Mageck_Gene level): 0.07
High_logP (Gene FBXO2, Mageck_Gene level): 0.12
Low_lfc (Gene FBXO2, Mageck_Gene level): -0.12
Low_logP (Gene FBXO2, Mageck_Gene level): 0.08
High_lfc (Gene FBXO10, Mageck_Gene level): 0.07
High_logP (Gene FBXO10, Mageck_Gene level): 0.21
Low_lfc (Gene FBXO10, Mageck_Gene level): -0.41
Low_logP (Gene FBXO10, Mageck_Gene level): 0.06
High_lfc (Gene FBXO11, Mageck_Gene level): -0.62
High_logP (Gene FBXO11, Mageck_Gene level): 0
Low_lfc (Gene FBXO11, Mageck_Gene level): 0.03
Low_logP (Gene FBXO11, Mageck_Gene level): 0.18
High_lfc (Gene FBXO15, Mageck_Gene level): -0.25
High_logP (Gene FBXO15, Mageck_Gene level): 0.04
Low_lfc (Gene FBXO15, Mageck_Gene level): -0.28
Low_logP (Gene FBXO15, Mageck_Gene level): 0.22
High_lfc (Gene FBXO16, Mageck_Gene level): -0.06
High_logP (Gene FBXO16, Mageck_Gene level): 0.3
Low_lfc (Gene FBXO16, Mageck_Gene level): -0.09
Low_logP (Gene FBXO16, Mageck_Gene level): 0.14
High_lfc (Gene FBXO17, Mageck_Gene level): -0.2
High_logP (Gene FBXO17, Mageck_Gene level): 0.06
Low_lfc (Gene FBXO17, Mageck_Gene level): 0.03
Low_logP (Gene FBXO17, Mageck_Gene level): 0.49
High_lfc (Gene FBXO18, Mageck_Gene level): -0.14
High_logP (Gene FBXO18, Mageck_Gene level): 0.12
Low_lfc (Gene FBXO18, Mageck_Gene level): 0.16
Low_logP (Gene FBXO18, Mageck_Gene level): 0.25
High_lfc (Gene FBXO21, Mageck_Gene level): 0.22
High_logP (Gene FBXO21, Mageck_Gene level): 0.42
Low_lfc (Gene FBXO21, Mageck_Gene level): 0
Low_logP (Gene FBXO21, Mageck_Gene level): 0.2
High_lfc (Gene FBXO22, Mageck_Gene level): -0.12
High_logP (Gene FBXO22, Mageck_Gene level): 0.02
Low_lfc (Gene FBXO22, Mageck_Gene level): 0.34
Low_logP (Gene FBXO22, Mageck_Gene level): 0.76
High_lfc (Gene FBXO24, Mageck_Gene level): -0.07
High_logP (Gene FBXO24, Mageck_Gene level): 0.15
Low_lfc (Gene FBXO24, Mageck_Gene level): 0.03
Low_logP (Gene FBXO24, Mageck_Gene level): 0.43
High_lfc (Gene FBXO25, Mageck_Gene level): -0.22
High_logP (Gene FBXO25, Mageck_Gene level): 0.18
Low_lfc (Gene FBXO25, Mageck_Gene level): -0.04
Low_logP (Gene FBXO25, Mageck_Gene level): 0.27
High_lfc (Gene FBXO27, Mageck_Gene level): -0.12
High_logP (Gene FBXO27, Mageck_Gene level): 0.16
Low_lfc (Gene FBXO27, Mageck_Gene level): 0.09
Low_logP (Gene FBXO27, Mageck_Gene level): 0.72
High_lfc (Gene FBXO28, Mageck_Gene level): 0.16
High_logP (Gene FBXO28, Mageck_Gene level): 0.49
Low_lfc (Gene FBXO28, Mageck_Gene level): -0.29
Low_logP (Gene FBXO28, Mageck_Gene level): 0.02
High_lfc (Gene FBXO30, Mageck_Gene level): -0.1
High_logP (Gene FBXO30, Mageck_Gene level): 0.16
Low_lfc (Gene FBXO30, Mageck_Gene level): 0.12
Low_logP (Gene FBXO30, Mageck_Gene level): 0.1
High_lfc (Gene FBXO31, Mageck_Gene level): 0.04
High_logP (Gene FBXO31, Mageck_Gene level): 0.36
Low_lfc (Gene FBXO31, Mageck_Gene level): -0.01
Low_logP (Gene FBXO31, Mageck_Gene level): 0.26
High_lfc (Gene FBXO32, Mageck_Gene level): 0.06
High_logP (Gene FBXO32, Mageck_Gene level): 0.08
Low_lfc (Gene FBXO32, Mageck_Gene level): 0.38
Low_logP (Gene FBXO32, Mageck_Gene level): 0.68
High_lfc (Gene FBXO33, Mageck_Gene level): -0.54
High_logP (Gene FBXO33, Mageck_Gene level): 0
Low_lfc (Gene FBXO33, Mageck_Gene level): -0.07
Low_logP (Gene FBXO33, Mageck_Gene level): 0.18
High_lfc (Gene FBXO34, Mageck_Gene level): 0.15
High_logP (Gene FBXO34, Mageck_Gene level): 0.29
Low_lfc (Gene FBXO34, Mageck_Gene level): -0.13
Low_logP (Gene FBXO34, Mageck_Gene level): 0.33
High_lfc (Gene FBXO36, Mageck_Gene level): -0.26
High_logP (Gene FBXO36, Mageck_Gene level): 0.21
Low_lfc (Gene FBXO36, Mageck_Gene level): 0.2
Low_logP (Gene FBXO36, Mageck_Gene level): 0.47
High_lfc (Gene FBXO38, Mageck_Gene level): -0.33
High_logP (Gene FBXO38, Mageck_Gene level): 0.02
Low_lfc (Gene FBXO38, Mageck_Gene level): 0.01
Low_logP (Gene FBXO38, Mageck_Gene level): 0.38
High_lfc (Gene FBXO39, Mageck_Gene level): 0.06
High_logP (Gene FBXO39, Mageck_Gene level): 0.22
Low_lfc (Gene FBXO39, Mageck_Gene level): 0.01
Low_logP (Gene FBXO39, Mageck_Gene level): 0.18
CRL substrate receptor scoring as top hit (gene required for BRD4 degradation) (KBM7 BRD4-BFP reporter cells, 9 0.5 µM, 10 1 µM, dBET6 10 nM, 6 hours): DCAF11
High_lfc (gene FBXO3): 0.34
High_logP (gene FBXO3): 0.33
Low_lfc (gene FBXO3): -0.08
Low_logP (gene FBXO3): 0.04
High_lfc (gene FBXO4): 0.05
High_logP (gene FBXO4): 0.31
Low_lfc (gene FBXO4): -0.07
Low_logP (gene FBXO4): 0.01
High_lfc (gene FBXO5): 0.23
High_logP (gene FBXO5): 0.83
Low_lfc (gene FBXO5): -0.27
Low_logP (gene FBXO5): 0.05
High_lfc (gene FBXO6): -0.06
High_logP (gene FBXO6): 0.34
Low_lfc (gene FBXO6): -0.26
Low_logP (gene FBXO6): 0.15
High_lfc (gene FBXO7): -0.21
High_logP (gene FBXO7): 0
Low_lfc (gene FBXO7): -0.1
Low_logP (gene FBXO7): 0.14
High_lfc (gene FBXO8): -0.41
High_logP (gene FBXO8): 0.01
Low_lfc (gene FBXO8): -0.3
Low_logP (gene FBXO8): 0.02
High_lfc (gene FBXO9): -0.11
High_logP (gene FBXO9): 0.02
Low_lfc (gene FBXO9): -0.13
Low_logP (gene FBXO9): 0.09
High_lfc (gene FBXO40): -0.14
High_logP (gene FBXO40): 0.09
Low_lfc (gene FBXO40): -0.23
Low_logP (gene FBXO40): 0.3
High_lfc (gene FBXO41): 0.03
High_logP (gene FBXO41): 0.17
Low_lfc (gene FBXO41): -0.11
Low_logP (gene FBXO41): 0.05
High_lfc (gene FBXO42): 0.02
High_logP (gene FBXO42): 0.05
Low_lfc (gene FBXO42): 0.34
Low_logP (gene FBXO42): 1.46
High_lfc (gene FBXO43): -0.17
High_logP (gene FBXO43): 0.11
Low_lfc (gene FBXO43): -0.15
Low_logP (gene FBXO43): 0.08
High_lfc (gene FBXO44): -0.16
High_logP (gene FBXO44): 0.39
Low_lfc (gene FBXO44): -0.37
Low_logP (gene FBXO44): 0.19
High_lfc (gene FBXO45): -0.07
High_logP (gene FBXO45): 0.11
Low_lfc (gene FBXO45): -0.31
Low_logP (gene FBXO45): 0.11
High_lfc (gene FBXO46): -0.12
High_logP (gene FBXO46): 0.12
Low_lfc (gene FBXO46): 0.18
Low_logP (gene FBXO46): 0.84
High_lfc (gene FBXO47): 0.35
High_logP (gene FBXO47): 0.59
Low_lfc (gene FBXO47): 0.65
Low_logP (gene FBXO47): 1.14
High_lfc (gene FBXO48): -0.14
High_logP (gene FBXO48): 0.09
Low_lfc (gene FBXO48): -0.68
Low_logP (gene FBXO48): 0.01
High_lfc (gene FBXW2): -0.16
High_logP (gene FBXW2): 0.05
Low_lfc (gene FBXW2): -0.15
Low_logP (gene FBXW2): 0.23
High_lfc (gene FBXW4): -0.23
High_logP (gene FBXW4): 0.02
Low_lfc (gene FBXW4): 0.1
Low_logP (gene FBXW4): 0.3
High_lfc (gene FBXW5): -0.14
High_logP (gene FBXW5): 0.29
Low_lfc (gene FBXW5): 0.04
Low_logP (gene FBXW5): 0.25
High_lfc (gene FBXW7): 0.42
High_logP (gene FBXW7): 1.76
Low_lfc (gene FBXW7): 0.03
Low_logP (gene FBXW7): 0.22
High_lfc (gene FBXW8): -0.01
High_logP (gene FBXW8): 0.23
Low_lfc (gene FBXW8): 0.37
Low_logP (gene FBXW8): 0.66
High_logP (gene FBXW9): 0.71
Low_logP (gene FBXW9): 1.01
High_lfc (gene FBXW10): -0.01
High_logP (gene FBXW10): 0.15
Low_lfc (gene FBXW10): -0.13
Low_logP (gene FBXW10): 0.01
High_lfc (gene FBXW11): -0.15
High_logP (gene FBXW11): 0.05
Low_lfc (gene FBXW11): -0.16
Low_logP (gene FBXW11): 0.14
High_lfc (gene FBXW12): -0.01
High_logP (gene FBXW12): 0.11
Low_lfc (gene FBXW12): 0.06
Low_logP (gene FBXW12): 0.36
High_logP (gene FEM1A): 0.33
